We go through one compound from patent publication US20190374554A1, “USE OF OXYGENATED CHOLESTEROL SULFATES (OCS) TO TREAT INFLAMMATORY SKIN DISEASE AND SKIN LESIONS” (Virginia Commonwealth University, priority 2016, published 2019).

One experiment concerns psoriasis plaques. Briefly: Proof of concept study of single intralesional doses in psoriasis patients, microplaque assay (LPSI). It counts as in vivo, human. As to conditions: single intralesional dose (3 injections of 100 μL); 14 day scoring period. From the text:
The objectives of this study were: • To establish preliminary evidence for the efficacy of intralesionally injected 25HC3S in patients with psoriasis, as assessed by microplaque assay. • To assess the safety of 25HC3S in patients with psoriasis. • Compare evidence for the efficacy of different formulations of intralesionally injected 25HC3S.
• This trial was a double-blind, within-participant, randomized, vehicle and active comparator-controlled, single-dose study. Participants attended a screening visit within 28 days of dosing. A target plaque(s) of psoriasis was selected. • Day 0: each participant was treated with 2 different formulations of study drug, 2 vehicle formulations, one active comparator and one untreated area (6 treatments in total). Each treatment was administered to every participant as an intralesional injection, with the exception of the untreated area. • Participants were required to return for outpatient visits for microplaque assessments at Day 1, Day 2, Day 7 and Day 14. Treatment Formulations: Table 12 lists the formulated drug products and Table 13 lists the amounts injected.
Ten patients with mild to severe psoriasis were enrolled into this clinical trial after screening. […]
The effect of 25HC3S in psoriasis was assessed by the change of LPSI score as compared to vehicle or untreated in this microplaque assay. […]

The subject of experiment [1] is IMQ-induced psoriasis-like back skin and ear lesions. Briefly: Imiquimod (IMQ)-induced psoriasis mouse model, skin scoring (erythema, scaling, thickness). The experiment is classed as in vivo, Balb/C mice. As to conditions: mice; intradermal injection into back lesion Days 1 and 4; vs vehicle (FIG. 2). The method, then:
The subjects for the study were 40 male Balb/C mice (18-22 g). […] The backs of all mice were shaved for an area of 1.5 cm×2 cm.
Formulation A was a clear solution of 25 HC3S sodium salt (30 mg/mL) in a solution vehicle (250 mg/mL hydroxypropyl betadex (beta cyclodextrin, 2-hydroxypropyl ether, a partially substituted poly(hydroxypropyl) ether of beta cyclodextrin) and 10 mM sodium phosphate buffer in sterile water). Vehicle was stored at 2-8° C. storage and placed at room temperature for 30 min. prior to mixing with powdered 25HC3S just prior to use. Dissolution of the 25HC3S in Vehicle A was rapid and appeared to be complete upon mixing.
Formulation B was a milky suspension of 25HC3S sodium salt (25 mg/mL) in a suspension vehicle (30 mg/mL polyethylene glycol 3350, 3 mg/mL polysorbate 80, 7.5 mg/mL NaCl, and 10 mM sodium phosphate buffer in sterile water). The 25HC3S was milled using a Fluid Energy Model 00 Jet-O-Mizer™ to approximately a 5 microns average particle size (measured by a Malvern Mastersizer 2000 equipped with a hydro 2000S dispersion cell) prior to addition to the vehicle. […]
Mice were monitored for signs of distress and daily photos of the back lesions were taken. Erythema, scaling, and thickness of the back skin was scored daily on a scale from 0 to 4 by an independent scorer (blind), where 0=none; 1=slight; 2=moderate; 3=marked; and 4=very marked. […]

With `C[C@H](CCCC(C)(C)O)[C@H]1CC[C@H]2[C@@H]3CC=C4C[C@@H](OS(=O)(=O)[O-])CC[C@]4(C)[C@H]3CC[C@]12C.[Na+]` [Formulation 25HC3S, 5-cholesten-3, 25-diol, 3-sulfate], the “effect on psoriatic plaques based on LPSI score” value in the experiment on psoriasis plaques was “exhibited efficacy in psoriatic plaques by reducing LPSI”. Also, the “erythema (redness) of the back skin” value in experiment [1] is “promotes reduction in erythema”.
